Assay: Regression model estimating vortioxetine half-life and MAOI delay from total body fat and steady-state plasma concentration (CYP2D6 metabolizer status)
Design: species or system human
From the text: Data obtained in the study described in Example 1 and Table 1 provided the basis for a regression model (having a r^2 value of 88%) based on total body fat and steady-state vortioxetine plasma concentration. Because the steady-state plasma concentration of vortioxetine correlates with metabolizer status, this regression provides a means of estimating vortioxetine half-life for patients based on total body fat and CYP2D6 metabolizer status.
Alternatively, the delay period can be calculated based on any particular values in Table 1, or any statistical parameter for characterizing the subject population of Table, such as the arithmetic mean, geometric mean, maximum, minimum, maximum or minimum 90% confidence interval, etc. of the half-life (e.g., 7.5×the average t1/2, 7.5×the maximum t1/2, and so forth, or the 21 day equivalency to a normal weight extensive metabolizer subject, based on the average t1/2 or the maximum t1/2 or any of the aforementioned statistically parameters).

[1] = Extensive(a) average of obese steady-state concentration for extensive metabolizers, total fat 60 kg
[2] = Extensive(a) average of obese steady-state concentration for extensive metabolizers, total fat 70 kg
[3] = Extensive(a) average of obese steady-state concentration for extensive metabolizers, total fat 80 kg
[4] = Extensive(a) average of obese steady-state concentration for extensive metabolizers, total fat 90 kg
[5] = Extensive(a) average of obese steady-state concentration for extensive metabolizers, total fat 100 kg
[6] = Extensive(b) high of extensive metabolizers, total fat 40 kg
[7] = Extensive(b) high of extensive metabolizers, total fat 50 kg
[8] = Extensive(b) high of extensive metabolizers, total fat 60 kg
[9] = Extensive(b) high of extensive metabolizers, total fat 70 kg
[10] = Extensive(b) high of extensive metabolizers, total fat 80 kg
[11] = Extensive(b) high of extensive metabolizers, total fat 90 kg
[12] = Extensive(b) high of extensive metabolizers, total fat 100 kg
[13] = IM(c) average of intermediate metabolizer values, total fat 10 kg
[14] = IM(c) average of intermediate metabolizer values, total fat 20 kg
[15] = IM(c) average of intermediate metabolizer values, total fat 30 kg
[16] = IM(c) average of intermediate metabolizer values, total fat 40 kg
[17] = IM(c) average of intermediate metabolizer values, total fat 50 kg
[18] = IM(c) average of intermediate metabolizer values, total fat 60 kg
[19] = IM(c) average of intermediate metabolizer values, total fat 70 kg
[20] = IM(c) average of intermediate metabolizer values, total fat 80 kg
[21] = IM(c) average of intermediate metabolizer values, total fat 90 kg

Cc1ccc(Sc2ccccc2N2CCNCC2)c(C)c1 [vortioxetine]
Half-Life Estimates (Extensive(a) average of obese steady-state concentration for extensive metabolizers, total fat 10 kg): 21 h | Half-Life Estimates (Extensive(a) average of obese steady-state concentration for extensive metabolizers, total fat 20 kg): 32 h | Half-Life Estimates (Extensive(a) average of obese steady-state concentration for extensive metabolizers, total fat 30 kg): 42 h | Half-Life Estimates (Extensive(a) average of obese steady-state concentration for extensive metabolizers, total fat 40 kg): 52 h | Half-Life Estimates (Extensive(a) average of obese steady-state concentration for extensive metabolizers, total fat 50 kg): 62 h | Half-Life Estimates [1]: 73 h | Weeks of Delay (7.5 X half-life) [1]: 3.2 Weeks | Half-Life Estimates [2]: 83 h | Weeks of Delay (7.5 X half-life) [2]: 3.7 Weeks | Half-Life Estimates [3]: 93 h | Weeks of Delay (7.5 X half-life) [3]: 4.2 Weeks | Half-Life Estimates [4]: 103 h | Weeks of Delay (7.5 X half-life) [4]: 4.6 Weeks | Half-Life Estimates [5]: 114 h | Weeks of Delay (7.5 X half-life) [5]: 5.1 Weeks | Half-Life Estimates (Extensive(b) high of extensive metabolizers, total fat 10 kg): 39 h | Half-Life Estimates (Extensive(b) high of extensive metabolizers, total fat 20 kg): 49 h | Half-Life Estimates (Extensive(b) high of extensive metabolizers, total fat 30 kg): 59 h | Half-Life Estimates [6]: 70 h | Weeks of Delay (7.5 X half-life) [6]: 3.1 Weeks | Half-Life Estimates [7]: 80 h | Weeks of Delay (7.5 X half-life) [7]: 3.6 Weeks | Half-Life Estimates [8]: 90 h | Weeks of Delay (7.5 X half-life) [8]: 4.0 Weeks | Half-Life Estimates [9]: 100 h | Weeks of Delay (7.5 X half-life) [9]: 4.5 Weeks | Half-Life Estimates [10]: 111 h | Weeks of Delay (7.5 X half-life) [10]: 4.9 Weeks | Half-Life Estimates [11]: 121 h | Weeks of Delay (7.5 X half-life) [11]: 5.4 Weeks | Half-Life Estimates [12]: 131 h | Weeks of Delay (7.5 X half-life) [12]: 5.9 Weeks | Half-Life Estimates [13]: 102 h | Weeks of Delay (7.5 X half-life) [13]: 4.6 Weeks | Half-Life Estimates [14]: 112 h | Weeks of Delay (7.5 X half-life) [14]: 5.0 Weeks | Half-Life Estimates [15]: 123 h | Weeks of Delay (7.5 X half-life) [15]: 5.5 Weeks | Half-Life Estimates [16]: 133 h | Weeks of Delay (7.5 X half-life) [16]: 5.9 Weeks | Half-Life Estimates [17]: 143 h | Weeks of Delay (7.5 X half-life) [17]: 6.4 Weeks | Half-Life Estimates [18]: 153 h | Weeks of Delay (7.5 X half-life) [18]: 6.8 Weeks | Half-Life Estimates [19]: 164 h | Weeks of Delay (7.5 X half-life) [19]: 7.3 Weeks | Half-Life Estimates [20]: 174 h | Weeks of Delay (7.5 X half-life) [20]: 7.8 Weeks | Half-Life Estimates [21]: 184 h | Weeks of Delay (7.5 X half-life) [21]: 8.2 Weeks
